Tested on: caspase-3 interactions with ASM, IRG, PGM, iNOS
Experimental: For this purpose, protein-protein interactions were determined in a yeast two-hybrid system by the method described in Uetz, P., et al., Nature 403, 623–627 (2000) and Ito, T., et al., PNAS, 97, 1143–1147 (2000). The baits were all known proteins involved in apoptotic cascades. The preys were a library of macrophage genes (mRNA) expressed in response to cytokines that induce apoptosis. Mating pairs or transfectants were exposed to continuous nitric oxide presence at levels and flux rates mimicking those which are generated in macrophages, over 18 hours (the time course, over which apoptosis occurs in these cells). Room air was used in the determinations to mimic the cell condition at first and subsequently low pO2 (about 5 mm Hg) was used to improve specificity and increase yield. New partners and/or inhibition of partners that were otherwise present, were sought.

interaction dependent on hydrogen peroxide in the 4 clones (added repeatedly or generated continuously with glucose oxidase): none was found
Structure (SMILES): OO [hydrogen peroxide]
effect of presence of hydrogen peroxide on determined interactions: did not produce or modify the majority of determined interactions

Source: patent publication US7229762B2, “Proteomic screening for redox state dependent protein—protein interactions” (Duke University Medical Center, priority 2003, dated 2007)
